Five molecules from US20180250306A1, “ALDEHYDE CONJUGATES AND USES THEREOF” (ALDEYRA THERAPEUTICS, INC., priority 2015, published 2018) can be followed below.

Test [1] is described as follows: Consumption of 4HNE over time (HPLC, 254 nm). The conditions noted are these: for decrease in HNE relative to corresponding increase in adduct: 1 week time period; for Consumption of 4HNE, ranking, 7 Hours / Consumption of 4HNE, ranking, 23 Hours: rank from most effective (1) to least; for Consumption of 4HNE, ranking, 23 Hours: ranks 1-4 essentially identical. From the text: 5 of 6 samples show consumption of 4HNE. One sample (2-(3-aminoquinolin-2-yl)propan-2-ol) overlaps 4HNE HPLC peak using current method. Best fit lines over this period give poorer fit to data than product formation data. Rate of 4HNE consumption can be used as an approximation of binding kinetics. […] The data were used to rank relatively each of the samples examined, including NS-2 but excluding 2-(3-aminoquinolin-2-yl)propan-2-ol.

The nature of test [2]: Aldehyde adduct formation over time (product HPLC peak). The conditions noted are these: for Formation of Product, ranking, 7 Hours / Formation of Product, ranking, 23 Hours: rank from most effective (1) to least. Here is the method:
It is not possible to conclude if this is the result of poor dissociation (from cyclodextrin) or poor interaction with the aldehyde. Best fit lines over this period give excellent fit to data. […] It can be used to relatively rank each of the samples examined, including NS2. The data were first evaluated over a 7 h time window.

Consider `CC(C)(O)c1nc2cc(Cl)ccc2cc1N` [2-(3-amino-7-chloroquinolin-2-yl)propan-2-ol], for which, in test [1], the “decrease in HNE relative to corresponding increase in adduct” value was “greater”; the “Consumption of 4HNE, ranking, 7 Hours” value was determined as 2; the “Consumption of 4HNE, ranking, 23 Hours” value was 1. For the same molecule, the “Gradient of 4HNE consumption” value in test [1] (23 h) was “(Gradient −0.05,”. In test [1] (first 7 h, analysis at 254 nm), the “Gradient of 4HNE consumption” value is reported as “(Gradient −0.06,”. Further, the “Gradient of product HPLC peak increase (rate of adduct formation)” value (“Gradient of product HPLC peak increase” below) in test [2] (7 h time window) was “(Gradient 2.02,”. The “Gradient of product HPLC peak increase” value in test [2] (23 h time window) is listed as “(Gradient 1.21,”. Further, in test [2], the “Formation of Product, ranking, 7 Hours” value came out at 3 and the “Formation of Product, ranking, 23 Hours” value was determined as 3.

For the molecule `CC(C)(O)c1nc2c(Cl)cccc2cc1N` [2-(3-amino-8-chloroquinolin-2-yl)propan-2-ol], in test [1], the “decrease in HNE relative to corresponding increase in adduct” value is “greater”; the “Consumption of 4HNE, ranking, 7 Hours” value is recorded as 5; the “Consumption of 4HNE, ranking, 23 Hours” value amounted to 5. In addition, the “Gradient of 4HNE consumption” value in test [1] (23 h) was “(Gradient −0.02,”. Besides, in test [1] (first 7 h, analysis at 254 nm), the “Gradient of 4HNE consumption” value is reported as “(Gradient −0.01,”. The “Gradient of product HPLC peak increase” value in test [2] (7 h time window) was “(Gradient 1.18,”. Besides, the “Gradient of product HPLC peak increase” value in test [2] (23 h time window) is on record as “(Gradient 0.81,”. Also, in test [2], the “Formation of Product, ranking, 7 Hours” value is on record as 5 and the “Formation of Product, ranking, 23 Hours” value is recorded as 5.

Take `CC(C)(O)c1nc2ccccc2cc1N` [2-(3-aminoquinolin-2-yl)propan-2-ol]: in test [2] (7 h time window), the “Gradient of product HPLC peak increase” value is “(Gradient 3.68,”. The “Gradient of product HPLC peak increase” value in test [2] (23 h time window) is recorded as “(Gradient 1.99,”. In test [2], the “Formation of Product, ranking, 7 Hours” value is 1 and the “Formation of Product, ranking, 23 Hours” value turned out to be 1.

On to `CC(C)(O)c1nc2ccc(Br)cc2cc1N` [2-(3-amino-6-bromoquinolin-2-yl)propan-2-ol], for which, in test [1] (23 h), the “Gradient of 4HNE consumption” value is “(Gradient −0.04,”. Also, in test [1] (first 7 h, analysis at 254 nm), the “Gradient of 4HNE consumption” value is on record as “(Gradient −0.04,”. Moreover, in test [1], the “Consumption of 4HNE, ranking, 7 Hours” value came to 4 and the “Consumption of 4HNE, ranking, 23 Hours” value is listed as 4. Besides, in test [2] (7 h time window), the “Gradient of product HPLC peak increase” value is reported as “(Gradient 1.63,”. The “Gradient of product HPLC peak increase” value in test [2] (23 h time window) is listed as “(Gradient 1.16,”. For the same molecule, in test [2], the “Formation of Product, ranking, 7 Hours” value is given as 4 and the “Formation of Product, ranking, 23 Hours” value turned out to be 4.

Take `CC(C)(O)c1nc2cccc(Cl)c2cc1N` [2-(3-amino-5-chloroquinolin-2yl)propan-2-ol]: in test [1] (23 h), the “Gradient of 4HNE consumption” value was “(Gradient −0.04,”. Besides, the “Gradient of 4HNE consumption” value in test [1] (first 7 h, analysis at 254 nm) is “(Gradient −0.05,”. In test [1], the “Consumption of 4HNE, ranking, 7 Hours” value worked out at 3 and the “Consumption of 4HNE, ranking, 23 Hours” value came to 2. In addition, in test [2] (7 h time window), the “Gradient of product HPLC peak increase” value is listed as “(Gradient 0.86,”. Also, the “Gradient of product HPLC peak increase” value in test [2] (23 h time window) is recorded as “(Gradient 0.44,”. Besides, in test [2], the “Formation of Product, ranking, 7 Hours” value is 6 and the “Formation of Product, ranking, 23 Hours” value is recorded as 6.
